Results as given in US20050148763A1, “Peg-binding pth or peg-binding pth derivative” (Chugai Seiyaku Kabushiki Kaisha, priority 2002, published 2005).
pEC50: −log10 of the molar value.

What was measured:
[1] = Increasing effect on bone mass in OVX rats; format: in vivo
Method: 2 k PEG-[Cys^35]-PTH(1-35) was studied for the increasing effect on bone mass in OVX rats as follows. […] These samples were divided into aliquots and stored at −80° C. until use.
Female SD-IGS rats at 7 weeks of age (Charles River Japan, Inc.) were used, 60 of which were ovariectomized (OVX) to remove both ovaries and 7 of which were sham-operated. After 2 weeks, the ovariectomized rats were measured for their body weight and divided into groups of 6 rats each such that the mean body weights of all groups were identical.
Each drug was given subcutaneously at a dose of 1 ml/kg on a 5 times-a-week basis for 4 weeks. On the last day of administration, the rats were housed in metabolic cages and 24-hour urine was collected from each rat. On the following day, after the rats were euthanized by exsanguination under anesthesia, an autopsy was performed to collect blood, lumbar vertebrae and femurs. The urine and blood were taken into tubes and centrifuged to collect the respective supernatants, which were stored at −20° C. until assayed for parameters. The lumbar vertebrae and right femurs were stored in 70% ethanol. The average bone density of the second to fifth lumbar vertebrae and the bone density of the right femur were measured using a dual X-ray bone mineral densitometer (DCS-600EX, ALOKA).

human PTH1 receptors = molecular target: T1, human PTH1 receptors (Homo sapiens, UniProt Q03431); assay: in vitro ability to produce cAMP, HKRK-B7 cells; format: cell-based; conditions: Table 2(1), n=2-3
T1 construct: expressed in transfected cells; host or cells: HKRK-B7 and HKRK-B64 cells (derived from pig kidney LLC-PK1 cells)
T1 sequence (Q03431 27-593): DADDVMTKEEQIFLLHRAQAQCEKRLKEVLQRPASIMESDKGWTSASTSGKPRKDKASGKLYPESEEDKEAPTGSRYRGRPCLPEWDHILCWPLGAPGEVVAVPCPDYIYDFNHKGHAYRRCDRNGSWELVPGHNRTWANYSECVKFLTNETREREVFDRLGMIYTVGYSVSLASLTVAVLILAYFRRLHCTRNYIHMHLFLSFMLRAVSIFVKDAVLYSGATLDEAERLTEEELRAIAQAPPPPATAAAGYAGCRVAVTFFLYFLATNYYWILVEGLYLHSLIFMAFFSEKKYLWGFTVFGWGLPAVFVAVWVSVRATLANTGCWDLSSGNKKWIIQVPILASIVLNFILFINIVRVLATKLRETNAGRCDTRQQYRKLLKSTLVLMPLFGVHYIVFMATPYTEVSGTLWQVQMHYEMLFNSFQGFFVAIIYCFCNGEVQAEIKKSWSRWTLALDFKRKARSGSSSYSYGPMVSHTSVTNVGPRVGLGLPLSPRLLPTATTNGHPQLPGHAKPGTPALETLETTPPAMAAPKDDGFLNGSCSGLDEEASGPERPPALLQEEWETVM
Method: Each PEG-PTH sample was assayed for its ability to produce cAMP (indicative of the increasing effect of PTH on bone mass) as follows. […] These cells were seeded in 96-well plates at 1×10^5 cells/well and incubated overnight. […] After removing the reaction solution, the plates were placed on powdered dry ice to freeze the cells and then removed from the dry ice. The cells were thawed with 50 μL of 50 mM HCl and frozen again on dry ice. The level of intracellular cAMP was determined with a commercially available EIA kit (Biotrak cAMP EIA system, Amersham).

[2] = Pharmacokinetics in rats by intravenous route; format: in vivo; conditions: rat, in vivo, 80 μg/mL at 1 mL/kg
Method: Each sample was adjusted to 80 μg/mL by dilution with 25 mmol/L citrate-phosphate buffer (pH 5.0) containing 100 mmol/L NaCl and 0.05 vol % Tween 20 to give a solution for administration. Male SD rats at 6 weeks of age (CLEA Japan, Inc.) were provided for this experiment. Intravenous injection was performed on rats having polyethylene tubes (SP-31, Natsume Seisakusho Co., Ltd.) inserted into the femoral artery and vein. The solutions thus prepared were each administered at a dose of 1 mL/kg through a polyethylene tube inserted into the femoral vein, and blood was collected through a polyethylene tube inserted into the femoral artery before administration and at 5, 15, 30 and 45 minutes as well as 1, 2, 4, 6, 8 and 24 hours after administration. Subcutaneous administration was performed on rats having polyethylene tubes inserted into the femoral artery. The solutions prepared above were each subcutaneously administered at a dose of 1 mL/kg to the dorsal neck region of the rats, and blood was collected in the same manner as used for intravenous injection. These blood samples were centrifuged to collect plasma and stored at −40° C. until assayed for PTH(1-34) or PEG-PTH(1-34) levels.
The level of PTH(1-34) or PEG-PTH(1-34) was determined by RIA analysis using a Rat PTH IRMA Kit (Immutopics). A Cobra Quantum Model 5005 gamma counter (Packard) was used to measure radioactivity for each sample. The plasma level of PTH(1-34) or PEG-PTH(1-34) was calculated from a calibration curve prepared using PTH(1-34) or PEG-PTH(1-34). The Winnonlin program Ver. 2.1 (Scientific Consulting Inc.) was used to analyze the time course of changes in the calculated plasma PTH(1-34) or PEG-PTH(1-34) levels (FIG. 3: by intravenous route; FIG. 4: by subcutaneous route) to calculate the following as pharmacokinetic parameters: time required to reach the maximum plasma level (Tmax); maximum plasma level (Cmax); area under the curve of plasma levels (AUC); plasma half-life (t1/2); total body clearance (Cltotal); mean residence time in the body (MRT); and bioavailability (BA). […]

[3] = Hypercalcemic effect of PEG-PTH(1-34) in normal female DDY mice; format: in vivo; conditions: sc, hPTH(1-34) 50-500 nmol/kg, 5 k PEG-PTH(1-34) 150 nmol/kg
Method: 2 k and 5 k PEG-PTH(1-34) were also adjusted similarly to 30 nmol/mL (calculated as PTH) and allowed to stand on ice immediately before administration.
Male BDF1 mice at 5 weeks of age (Charles River Japan, Inc.) were measured for their body weight. Immediately before drug administration, blood was collected by orbital puncture into heparinized capillary tubes and measured for baseline levels of blood ionized calcium and pH using a Ca^2+/pH analyzer (Model 348/Bayer Medical Ltd.) to give the corrected level of ionized calcium at pH 7.4 for each sample. The mice received subcutaneous administration of each drug at a dose of 5 mL/kg. […] At 1, 3 and 6 hours after administration, blood was collected by orbital puncture to monitor the time course of corrected blood ionized calcium levels.
The same experiment was repeated on female DDY mice at 5 weeks of age (Charles River Japan, Inc.). The mice received subcutaneous administration of each drug at a dose of 5 mL/kg. […] At 1, 3 and 6 hours after administration, blood was collected by orbital puncture to monitor the time course of corrected blood ionized calcium levels.

| Maximum cAMP response (human PTH1 receptors) [pmol/well] | pEC50 (human PTH1 receptors; cAMP production) | AUC ([2]; read-out: AUC) [ng·h/mL] | clearance ([2]; read-out: Cltotal (converted)) [mL/min/kg] | MRT ([2]; read-out: MRT) [min] | half-life ([2]; read-out: t½ (converted)) [min] | time of maximum increase in blood ionized calcium levels after administration [3] [h] | Compound | lumbar and femoral bone density, significance (in words) ([1]; OVX rats, 7.5, 30 and 120 nmol/kg sc, 4 weeks) | lumbar and femoral bone density (in words) ([1]; OVX rats, sc 5 times a week for 4 weeks) |
| --- | --- | --- | --- | --- | --- | --- | --- | --- | --- |
| 109.3 ± 10.1 | 9.30 | – | – | – | – | – | 2 k PEG-[Cys^35]-hPTH(1-35): [Cys^35]-PTH(1-35) conjugated with mPEG 2 k-MAL (2 kDa methoxy-PEG-maleimide) at the C-terminal cysteine (SVSEIQLMHNLGKHLNSMERVEWLRKKLQDVHNFC; Parathyroid hormone 2 kDa mPEG-maleimide at Cys35; UniProt P01270 32-66, looked up, variant V35C) | statistically-significant increases in both lumbar and femoral bone density | dose-dependent increases in lumbar and femoral bone density |
| – | – | 21.7 | 61.7 | 12.7 | 13.9 | 3 | CC[C@H](C)[C@H](NC(=O)[C@H](CCC(=O)O)NC(=O)[C@H](CO)NC(=O)[C@@H](NC(=O)[C@@H](N)CO)C(C)C)C(=O)N[C@@H](CCC(N)=O)C(=O)N[C@@H](CC(C)C)C(=O)N[C@@H](CCSC)C(=O)N[C@@H](Cc1cnc[nH]1)C(=O)N[C@@H](CC(N)=O)C(=O)N[C@@H](CC(C)C)C(=O)NCC(=O)N[C@@H](CCCCN)C(=O)N[C@@H](Cc1cnc[nH]1)C(=O)N[C@@H](CC(C)C)C(=O)N[C@@H](CC(N)=O)C(=O)N[C@@H](CO)C(=O)N[C@@H](CCSC)C(=O)N[C@@H](CCC(=O)O)C(=O)N[C@@H](CCCN=C(N)N)C(=O)N[C@H](C(=O)N[C@@H](CCC(=O)O)C(=O)N[C@@H](Cc1c[nH]c2ccccc12)C(=O)N[C@@H](CC(C)C)C(=O)N[C@@H](CCCN=C(N)N)C(=O)N[C@@H](CCCCN)C(=O)N[C@@H](CCCCN)C(=O)N[C@@H](CC(C)C)C(=O)N[C@@H](CCC(N)=O)C(=O)N[C@@H](CC(=O)O)C(=O)N[C@H](C(=O)N[C@@H](Cc1cnc[nH]1)C(=O)N[C@@H](CC(N)=O)C(=O)N[C@@H](Cc1ccccc1)C(=O)O)C(C)C)C(C)C [hPTH(1-34), reference compound] | – | – |
